Experimental data as given in ChEMBL document CHEMBL1201862, “PubChem BioAssay data set” (2004).
Active and inactive are the calls of the source.

Columns and labels:
[1] = target: Nuclear receptor subfamily 0 group B member 1 (Homo sapiens, UniProt P51843); type: functional, cell-based;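 also: HEK293T cells transfected with SF-1 and DAX-1 plus StAR promoter luciferase reporter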
cells = type: functional, cell-based
[2] = target: Adenosylmethionine-8-amino-7-oxononanoate aminotransferase (Mycobacterium tuberculosis, UniProt P9WQ81); assay: Mycobacterium tuberculosis BioA enzyme inhibitor Measured in Biochemical System Using Plate Reader - 2163-02_Inhibitor_Dose_CherryPick_Activity.; type: functional, Mycobacterium tuberculosis UT205
Chain of Adenosylmethionine-8-amino-7-oxononanoate aminotransferase (P9WQ81 whole entry): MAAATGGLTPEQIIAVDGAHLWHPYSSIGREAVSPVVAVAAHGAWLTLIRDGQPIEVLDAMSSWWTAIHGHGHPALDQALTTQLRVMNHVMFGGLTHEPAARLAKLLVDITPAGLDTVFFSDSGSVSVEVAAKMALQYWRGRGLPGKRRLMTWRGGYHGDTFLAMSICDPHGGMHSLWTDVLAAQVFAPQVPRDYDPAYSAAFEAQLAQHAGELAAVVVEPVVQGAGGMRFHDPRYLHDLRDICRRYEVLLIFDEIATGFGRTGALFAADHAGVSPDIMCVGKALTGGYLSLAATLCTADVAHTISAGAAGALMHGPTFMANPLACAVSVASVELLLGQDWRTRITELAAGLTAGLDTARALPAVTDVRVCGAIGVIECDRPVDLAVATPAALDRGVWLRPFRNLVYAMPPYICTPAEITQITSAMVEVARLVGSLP

[3] = target: 26S proteasome non-ATPase regulatory subunit 14 (Homo sapiens, UniProt O00487); assay: inhibition of proteasome subunit RPN11 – biochemical, fluorescence polarization, uHTS hits, confirmation (AID 602368); type: functional
Chain of 26S proteasome non-ATPase regulatory subunit 14 (O00487 whole entry): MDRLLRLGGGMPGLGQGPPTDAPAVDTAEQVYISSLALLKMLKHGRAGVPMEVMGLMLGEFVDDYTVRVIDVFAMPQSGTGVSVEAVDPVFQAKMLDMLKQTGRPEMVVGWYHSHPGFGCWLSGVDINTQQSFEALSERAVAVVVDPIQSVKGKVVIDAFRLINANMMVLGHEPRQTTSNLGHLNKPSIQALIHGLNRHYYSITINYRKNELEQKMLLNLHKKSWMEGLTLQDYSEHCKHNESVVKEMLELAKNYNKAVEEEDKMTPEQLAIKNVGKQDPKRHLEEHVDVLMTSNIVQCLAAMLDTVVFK

[4] = target: 72 kDa type IV collagenase (Homo sapiens, UniProt P08253); assay: Dose Response validation of uHTS RPN11 inhibitor hits using a MMP-2 Fluorescence assay.; type: functional
Chain of 72 kDa type IV collagenase (P08253 whole entry): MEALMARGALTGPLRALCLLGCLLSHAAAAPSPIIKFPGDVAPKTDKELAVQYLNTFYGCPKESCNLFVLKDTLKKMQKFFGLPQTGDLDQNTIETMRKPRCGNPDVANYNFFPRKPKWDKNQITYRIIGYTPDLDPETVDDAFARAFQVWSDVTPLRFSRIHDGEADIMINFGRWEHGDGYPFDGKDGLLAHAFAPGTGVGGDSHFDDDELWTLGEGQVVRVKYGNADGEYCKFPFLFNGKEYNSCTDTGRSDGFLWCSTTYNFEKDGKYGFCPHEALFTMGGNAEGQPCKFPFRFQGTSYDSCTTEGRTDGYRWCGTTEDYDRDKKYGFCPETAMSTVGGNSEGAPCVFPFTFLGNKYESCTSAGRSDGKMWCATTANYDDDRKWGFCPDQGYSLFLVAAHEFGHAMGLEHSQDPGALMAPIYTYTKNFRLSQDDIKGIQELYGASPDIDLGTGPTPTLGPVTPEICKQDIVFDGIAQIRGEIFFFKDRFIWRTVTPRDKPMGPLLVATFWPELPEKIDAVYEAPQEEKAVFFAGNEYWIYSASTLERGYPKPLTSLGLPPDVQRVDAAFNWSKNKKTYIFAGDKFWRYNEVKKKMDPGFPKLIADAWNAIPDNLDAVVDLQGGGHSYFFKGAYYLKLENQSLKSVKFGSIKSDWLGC

Prothrombin = Prothrombin (Bos taurus, UniProt P00735); assay: thrombin protease inhibitors – biochemical, fluorescence polarization, uHTS hits, dose response (AID 602369); type: functional
Beta-lactamase [5] = target: T1, Beta-lactamase (Pseudomonas aeruginosa, UniProt Q79MP6); assay: inhibition of IMP-1 beta-lactamase activity – biochemical, epi-absorbance, selectivity assay for VIM-2 inhibitor project, dose response (AID 1920)
T1 sequence (Q79MP6 whole entry): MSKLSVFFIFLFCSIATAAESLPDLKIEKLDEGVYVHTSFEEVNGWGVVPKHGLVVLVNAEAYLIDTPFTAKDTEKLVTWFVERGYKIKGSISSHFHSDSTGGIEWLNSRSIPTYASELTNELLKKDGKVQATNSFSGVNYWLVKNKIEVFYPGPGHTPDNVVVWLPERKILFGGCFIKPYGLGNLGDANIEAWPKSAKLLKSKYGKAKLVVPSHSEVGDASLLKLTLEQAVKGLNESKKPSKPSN

Beta-lactamase [6] = target: T1, Beta-lactamase; assay: […] counterscreen for selective VIM-2 inhibitors: dose response biochemical high throughput screening assay to identify inhibitors of IMP-1 metallo-beta-lactamase.
Beta-lactamase [7] = target: Beta-lactamase (Salmonella choleraesuis (strain SC-B67), UniProt Q5J463); assay: Epi-absorbance-based counterscreen for selective VIM-2 inhibitors: dose response biochemical high throughput screening assay to identify inhibitors of TEM-1 serine-beta-lactamase.
Chain of Beta-lactamase (Salmonella choleraesuis (strain SC-B67), UniProt Q5J463) (Q5J463 whole entry): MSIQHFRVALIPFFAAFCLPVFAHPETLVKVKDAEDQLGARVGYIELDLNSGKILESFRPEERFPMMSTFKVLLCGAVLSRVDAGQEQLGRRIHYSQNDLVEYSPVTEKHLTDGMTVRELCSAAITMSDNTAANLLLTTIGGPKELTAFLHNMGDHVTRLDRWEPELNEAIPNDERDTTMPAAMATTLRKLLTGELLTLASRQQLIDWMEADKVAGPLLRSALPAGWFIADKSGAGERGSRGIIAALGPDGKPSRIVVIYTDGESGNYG

Steroidogenic factor 1 = Steroidogenic factor 1 (Homo sapiens, UniProt Q13285); assay: Counterscreen for inverse agonists of the liver receptor homolog-1 (LRH-1; NR5A2): Luminescence-based cell-based high throughput dose response assay to identify inverse agonists of the Steroidogenic Factor 1 Nuclear Receptor (SF1; NR5A1).; type: functional
Chain of Steroidogenic factor 1 (Q13285 whole entry): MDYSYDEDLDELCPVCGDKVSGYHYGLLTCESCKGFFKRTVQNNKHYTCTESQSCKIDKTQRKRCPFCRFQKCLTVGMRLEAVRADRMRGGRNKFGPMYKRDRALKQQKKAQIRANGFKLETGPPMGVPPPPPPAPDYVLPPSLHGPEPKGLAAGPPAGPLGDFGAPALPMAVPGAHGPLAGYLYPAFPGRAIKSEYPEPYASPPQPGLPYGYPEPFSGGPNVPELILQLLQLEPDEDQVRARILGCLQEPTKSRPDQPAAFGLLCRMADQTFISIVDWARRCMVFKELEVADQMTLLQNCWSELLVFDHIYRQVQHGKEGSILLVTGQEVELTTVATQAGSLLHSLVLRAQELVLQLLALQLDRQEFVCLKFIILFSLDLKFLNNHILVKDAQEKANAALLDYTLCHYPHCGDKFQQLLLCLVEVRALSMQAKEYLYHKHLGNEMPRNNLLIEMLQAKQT

[8] = nonselective StAR promoter luciferase inhibitors – cell-based, luminescence, luciferase reporter, counter-screen for LRH-1 inverse agonist project, dose response (AID 651969); type: functional
[9] = target: Nuclear receptor subfamily 5 group A member 2 (Homo sapiens, UniProt O00482); type: functional, cell-based;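 also: HEK293T cells transfected with LRH-1 and a StAR promoter luciferase reporter; potency for inhibitors that lower LRH-1 driven reporter light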
Chain of Nuclear receptor subfamily 5 group A member 2 (O00482 whole entry): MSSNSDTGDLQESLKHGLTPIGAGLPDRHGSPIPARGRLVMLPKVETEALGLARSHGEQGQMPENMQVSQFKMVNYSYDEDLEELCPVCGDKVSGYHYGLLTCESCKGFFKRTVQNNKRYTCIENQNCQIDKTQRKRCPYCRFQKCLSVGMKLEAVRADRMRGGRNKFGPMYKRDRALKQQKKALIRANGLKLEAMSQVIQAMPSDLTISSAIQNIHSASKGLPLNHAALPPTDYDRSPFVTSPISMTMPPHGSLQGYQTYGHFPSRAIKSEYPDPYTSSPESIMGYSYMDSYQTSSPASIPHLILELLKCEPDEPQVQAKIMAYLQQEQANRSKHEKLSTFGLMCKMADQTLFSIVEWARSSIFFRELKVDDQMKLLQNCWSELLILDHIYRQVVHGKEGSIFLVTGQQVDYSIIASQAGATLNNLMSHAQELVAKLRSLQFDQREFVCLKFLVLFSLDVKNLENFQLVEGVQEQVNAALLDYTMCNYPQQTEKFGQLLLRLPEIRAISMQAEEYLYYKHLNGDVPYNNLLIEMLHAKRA

[10] = target: SWI/SNF-related matrix-associated actin-dependent regulator of chromatin subfamily A member 2 (Homo sapiens, UniProt P51531); assay: Luminescence-based cell-based high throughput dose response assay to identify activators of the function of SWI/SNF related, matrix associated, actin dependent regulator of chromatin, subfamily a, member 2 (SMARCA2, BRM).; type: functional
Chain of SWI/SNF-related matrix-associated actin-dependent regulator of chromatin subfamily A member 2 (P51531 whole entry): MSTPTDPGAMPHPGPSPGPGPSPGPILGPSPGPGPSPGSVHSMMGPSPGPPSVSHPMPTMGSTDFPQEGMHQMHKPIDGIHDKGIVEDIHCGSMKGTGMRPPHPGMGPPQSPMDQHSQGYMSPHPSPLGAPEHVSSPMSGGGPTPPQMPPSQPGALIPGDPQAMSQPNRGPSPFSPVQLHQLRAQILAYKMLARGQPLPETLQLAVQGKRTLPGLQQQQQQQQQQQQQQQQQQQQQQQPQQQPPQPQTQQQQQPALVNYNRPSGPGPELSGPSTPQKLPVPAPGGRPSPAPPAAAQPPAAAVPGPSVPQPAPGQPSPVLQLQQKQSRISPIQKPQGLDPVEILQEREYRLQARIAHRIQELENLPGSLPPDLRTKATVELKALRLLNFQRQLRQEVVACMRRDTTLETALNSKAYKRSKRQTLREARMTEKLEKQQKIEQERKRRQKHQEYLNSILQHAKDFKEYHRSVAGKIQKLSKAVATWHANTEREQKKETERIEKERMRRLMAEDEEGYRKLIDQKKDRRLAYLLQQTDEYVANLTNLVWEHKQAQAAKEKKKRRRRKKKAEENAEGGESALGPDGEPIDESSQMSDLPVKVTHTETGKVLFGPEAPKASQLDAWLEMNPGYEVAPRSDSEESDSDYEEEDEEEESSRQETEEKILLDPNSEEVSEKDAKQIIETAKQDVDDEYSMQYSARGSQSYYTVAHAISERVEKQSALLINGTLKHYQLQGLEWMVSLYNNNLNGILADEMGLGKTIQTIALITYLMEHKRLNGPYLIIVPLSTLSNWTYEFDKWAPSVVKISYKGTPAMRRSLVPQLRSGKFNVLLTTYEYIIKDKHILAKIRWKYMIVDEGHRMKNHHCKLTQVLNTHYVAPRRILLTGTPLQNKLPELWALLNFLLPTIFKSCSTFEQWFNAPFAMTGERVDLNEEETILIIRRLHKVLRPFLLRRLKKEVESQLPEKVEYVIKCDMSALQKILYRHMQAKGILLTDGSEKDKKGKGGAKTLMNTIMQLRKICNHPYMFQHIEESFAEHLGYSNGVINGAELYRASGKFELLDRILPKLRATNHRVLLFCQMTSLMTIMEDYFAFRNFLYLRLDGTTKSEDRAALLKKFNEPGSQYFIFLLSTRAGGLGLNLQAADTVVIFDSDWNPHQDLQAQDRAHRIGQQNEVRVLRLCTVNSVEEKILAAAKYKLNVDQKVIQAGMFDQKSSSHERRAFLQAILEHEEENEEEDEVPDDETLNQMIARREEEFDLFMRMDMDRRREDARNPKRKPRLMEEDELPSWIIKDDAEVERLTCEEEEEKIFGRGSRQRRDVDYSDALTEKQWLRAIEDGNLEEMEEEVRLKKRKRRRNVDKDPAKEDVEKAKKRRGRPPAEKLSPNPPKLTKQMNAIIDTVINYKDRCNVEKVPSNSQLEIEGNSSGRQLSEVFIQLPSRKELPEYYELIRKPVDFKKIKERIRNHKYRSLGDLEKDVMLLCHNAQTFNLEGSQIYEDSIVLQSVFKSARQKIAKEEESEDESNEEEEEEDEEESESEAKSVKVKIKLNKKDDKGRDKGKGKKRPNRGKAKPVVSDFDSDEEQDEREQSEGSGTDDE

[11] = Counterscreen for activators of the function of SWI/SNF related, matrix associated, actin dependent regulator of chromatin, subfamily a, member 2 (SMARCA2, BRM): Luminescence-based cell-based high throughput dose response assay to identify non-selective compounds using the VP16 reporter assay.; type: functional
[12] = Fluorescence-based cell-based high throughput dose response assay for inhibitors of the interaction of nucleotide-binding oligomerization domain containing 2 (NOD2) and the receptor-interacting serine-threonine kinase 2 (RIPK2).; type: functional; conditions: Homo sapiens
[13] = Counterscreen for inhibitors of Trypanosoma brucei methionyl tRNA synthetase (MetRS): Luminescence-based cell-based high throughput dose response assay to identify compounds that are cytotoxic to Jurkat human T lymphocyte cells.; type: functional
[14] = target: T2, Methionyl-tRNA synthetase, putative (Trypanosoma brucei brucei, UniProt Q38C91); type: functional, Trypanosoma brucei brucei strain 927/4 GUTat10.1
T2 sequence (Q38C91 whole entry): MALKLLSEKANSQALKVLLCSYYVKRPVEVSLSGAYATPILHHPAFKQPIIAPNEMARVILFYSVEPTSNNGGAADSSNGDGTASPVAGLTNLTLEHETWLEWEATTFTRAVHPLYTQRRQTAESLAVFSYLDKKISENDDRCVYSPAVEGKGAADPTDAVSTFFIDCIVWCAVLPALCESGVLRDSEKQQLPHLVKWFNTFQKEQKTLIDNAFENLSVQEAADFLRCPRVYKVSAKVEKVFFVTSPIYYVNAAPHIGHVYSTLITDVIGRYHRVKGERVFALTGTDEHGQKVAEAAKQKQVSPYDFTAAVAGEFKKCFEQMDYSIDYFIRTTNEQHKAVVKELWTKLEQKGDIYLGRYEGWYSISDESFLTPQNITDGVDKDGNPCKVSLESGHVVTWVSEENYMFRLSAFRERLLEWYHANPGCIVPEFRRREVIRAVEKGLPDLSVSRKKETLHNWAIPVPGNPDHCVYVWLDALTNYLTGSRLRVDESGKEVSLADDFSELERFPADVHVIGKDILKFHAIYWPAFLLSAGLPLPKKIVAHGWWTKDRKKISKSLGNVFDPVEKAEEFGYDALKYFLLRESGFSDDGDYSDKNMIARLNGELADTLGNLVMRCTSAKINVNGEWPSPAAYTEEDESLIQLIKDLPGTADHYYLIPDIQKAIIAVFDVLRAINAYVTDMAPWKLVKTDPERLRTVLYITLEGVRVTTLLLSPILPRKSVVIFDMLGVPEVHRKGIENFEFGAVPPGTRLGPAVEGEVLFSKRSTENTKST

[15] = target: T2, Methionyl-tRNA synthetase, putative; type: functional, Trypanosoma brucei brucei strain 927/4 GUTat10.1; remark: listed apart in the source
[16] = target: T3, Probable nicotinate-nucleotide adenylyltransferase (Staphylococcus aureus (strain N315), UniProt P65502); type: functional, Staphylococcus aureus subsp. aureus N315;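 as to IC50 Mean: confirmatory dose-response retesting of NadD inhibitor hits first found in an ultra-high-throughput screen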
T3 sequence (P65502 whole entry): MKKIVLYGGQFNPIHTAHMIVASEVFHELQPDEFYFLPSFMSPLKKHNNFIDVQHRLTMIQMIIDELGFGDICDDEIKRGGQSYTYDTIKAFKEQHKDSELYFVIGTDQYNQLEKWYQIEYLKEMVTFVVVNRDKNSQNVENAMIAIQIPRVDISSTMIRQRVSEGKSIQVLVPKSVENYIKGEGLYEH

[17] = target: T3, Probable nicotinate-nucleotide adenylyltransferase; type: functional, Staphylococcus aureus subsp. aureus N315; conditions: read-out: IC50_Mean
Fatty acid synthase [18] = target: T4, Fatty acid synthase (Homo sapiens, UniProt P49327); assay: inhibition of human FAS-TE enzyme activity – biochemical, kinetic fluorescence intensity, dose response (AID 624326); type: functional;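 also: rate of fluorescence rise from hydrolysis of a fluorogenic O-methyl fluorescein ester substrate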
Fatty acid synthase [19] = target: T4, Fatty acid synthase; assay: inhibition of human FAS-TE enzyme activity – biochemical, endpoint fluorescence intensity, uHTS hits, dose response (AID 624327); type: functional;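 also: fluorescence from hydrolysis of an O-methyl fluorescein acyl ester substrate by the enzyme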
Beta Lactamase = Beta Lactamase (Pseudomonas aeruginosa, UniProt Q932Y6); assay: BLA reporter interference, concentration series – BLA reporter cells, FRET fluorescence, artefact control for NOD2-RIPK2 interaction inhibitor project, dose response (AID 651552); type: functional, cell-based
Chain of Beta Lactamase (Q932Y6 whole entry): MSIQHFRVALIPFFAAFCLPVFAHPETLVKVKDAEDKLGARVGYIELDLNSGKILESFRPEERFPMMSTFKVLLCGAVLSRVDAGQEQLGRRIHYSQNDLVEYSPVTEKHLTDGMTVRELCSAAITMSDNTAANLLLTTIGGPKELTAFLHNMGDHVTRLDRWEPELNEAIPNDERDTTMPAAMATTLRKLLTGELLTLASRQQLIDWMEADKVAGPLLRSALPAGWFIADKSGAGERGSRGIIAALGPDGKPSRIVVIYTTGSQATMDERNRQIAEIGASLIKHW

Vero = assay: viability loss in Vero cells – cell-based, plate reader, cherry-pick samples, cytotoxicity control, dose response (AID 687020); type: functional; conditions: Chlorocebus sabaeus
A549 = assay: viability loss in A549 cells – cell-based, plate reader, cherry-pick samples, cytotoxicity control, dose response (AID 687028); type: functional; conditions: Homo sapiens
Hexokinase = target: T5, Hexokinase (Trypanosoma brucei, UniProt Q38C41); assay: Confirmation assay for inhibitors of Trypanosoma brucei hexokinase 1-Analogue-first series. [Related pubchem assays (depositor defined):AID1430, AID1632, AID2516, AID2560, AID2579, AID2600, AID449725, AID492951]; type: functional
T5 sequence (Q38C41 whole entry): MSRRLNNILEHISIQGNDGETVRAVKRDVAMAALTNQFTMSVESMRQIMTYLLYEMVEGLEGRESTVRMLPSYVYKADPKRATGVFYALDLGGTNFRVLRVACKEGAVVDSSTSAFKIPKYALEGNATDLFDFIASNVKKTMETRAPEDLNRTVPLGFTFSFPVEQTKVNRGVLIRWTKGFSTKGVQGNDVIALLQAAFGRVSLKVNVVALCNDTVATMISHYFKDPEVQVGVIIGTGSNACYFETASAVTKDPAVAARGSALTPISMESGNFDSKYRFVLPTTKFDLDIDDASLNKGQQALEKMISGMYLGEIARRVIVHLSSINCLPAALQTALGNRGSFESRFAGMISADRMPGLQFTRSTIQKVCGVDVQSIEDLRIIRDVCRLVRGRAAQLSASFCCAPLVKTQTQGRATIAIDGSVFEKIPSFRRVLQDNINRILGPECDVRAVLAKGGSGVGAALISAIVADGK

[20] = target: T6, Rac GTPase-activating protein 1 (Homo sapiens, UniProt Q9H0H5); assay: blockers of MgcRacGAP-driven Rac1 GTP hydrolysis – biochemical, ADP Hunter fluorescence, primary and confirmatory, confirmation (AID 624330); type: functional
T6 sequence (Q9H0H5 whole entry): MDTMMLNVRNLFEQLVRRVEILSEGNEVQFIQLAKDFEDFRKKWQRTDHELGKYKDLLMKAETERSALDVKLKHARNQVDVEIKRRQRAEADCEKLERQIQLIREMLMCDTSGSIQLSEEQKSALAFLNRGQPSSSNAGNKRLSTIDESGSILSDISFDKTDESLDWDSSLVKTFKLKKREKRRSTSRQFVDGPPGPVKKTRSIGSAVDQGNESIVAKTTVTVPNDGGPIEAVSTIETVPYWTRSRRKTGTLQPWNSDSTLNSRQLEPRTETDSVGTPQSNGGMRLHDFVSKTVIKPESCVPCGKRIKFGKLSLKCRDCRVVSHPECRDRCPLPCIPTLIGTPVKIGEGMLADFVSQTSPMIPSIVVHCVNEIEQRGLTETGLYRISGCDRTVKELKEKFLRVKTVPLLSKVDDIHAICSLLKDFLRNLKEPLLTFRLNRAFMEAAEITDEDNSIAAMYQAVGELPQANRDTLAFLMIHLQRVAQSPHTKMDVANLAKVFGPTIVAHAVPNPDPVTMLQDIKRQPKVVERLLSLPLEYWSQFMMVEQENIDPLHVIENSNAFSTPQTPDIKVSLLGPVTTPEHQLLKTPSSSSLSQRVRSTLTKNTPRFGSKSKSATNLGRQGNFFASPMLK

[21] = target: Glucose-6-phosphate 1-dehydrogenase (Homo sapiens, UniProt P11413); assay: inhibition of Homo sapiens G6PD, dose series – biochemical, fluorescence, selectivity assay for P. falciparum G6PD inhibitor project, dose response (AID 504792); type: functional
[22] = viability loss in HeLa cells – cytotoxicity control for MgcRacGAP inhibitor project, dose response (AID 624300); type: functional

Structure (SMILES): O=C(Nc1ccc(Cl)cn1)c1ccc2nccnc2c1
- IC50 [1]: > 67.6 µM (inactive)
- IC50 (cells): > 67.6 µM (inactive)

Structure (SMILES): COc1cc(-c2nnc(S)n2Cc2ccccc2)cc(OC)c1OC
- AC50 [2]: 2.51 µM (active)

Structure (SMILES): CN1C(=O)/C(=C\C=C2/CCCN2C)N(C)C1=S
- IC50 [3]: 23.3 µM (active)
- IC50 [4]: > 100 µM (inactive)
- IC50 (Prothrombin): 42.7 µM (active)

Structure (SMILES): COc1cc2c(cc1OC)C(C)N(C(=O)c1nccnc1C(=O)O)CC2 (stereo not given)
- IC50 (Beta-lactamase [5]): > 59.6 µM (inactive)
- IC50 (Beta-lactamase [6]): > 59.6 µM (inactive)
- IC50 (Beta-lactamase [7]): > 59.6 µM (inactive)

Structure (SMILES): Cc1cccc(NC(=O)COC(=O)Cc2cccs2)c1C
- IC50 (Steroidogenic factor 1): 7.35 µM (active)
- IC50 [8]: 35.9 µM (inactive)
- IC50 [9]: 12.8 µM (inactive)

Structure (SMILES): Cc1cc2nc(CS)[nH]c2cc1C
- IC50 [3]: 51.1 µM (active)
- IC50 [4]: 9.51 µM (active)
- IC50 (Prothrombin): > 100 µM (inactive)

Structure (SMILES): CN(CC(=O)Nc1ccccc1Cl)C(=O)COC(=O)c1nc(Cl)c(Cl)c(Cl)c1Cl
- EC50 [10]: > 91.2 µM (inactive)
- EC50 [11]: > 91.2 µM (inactive)
- IC50 [12]: 8.62 µM (active)

Structure (SMILES): COc1ccc(C(=O)Nc2cccnc2)cc1OC
- AC50 [2]: 8.29 µM (active)

Structure (SMILES): CN(C)S(=O)(=O)c1cccc(NC(=O)Cc2ccc(Cl)cc2)c1
- IC50 [13]: 83.3 µM (inactive)
- IC50 [14]: 72.3 µM (inactive)
- IC50 [15]: 32.3 µM (inactive)

Structure (SMILES): CCc1cccc2c1NC(=O)C21N2CCCC2C(C(=O)c2ccc3ccccc3c2)C12C(=O)Nc1ccccc12 (stereo not given)
- IC50 [16]: 16.2 µM (active)
- IC50 [17]: 35.7 µM (active)

Structure (SMILES): O=c1[nH]c(CSc2ncnc3sccc23)nc2cc(C(F)(F)F)ccc12
- IC50 [3]: 32 µM (active)
- IC50 [4]: > 100 µM (inactive)
- IC50 (Prothrombin): 60.8 µM (active)

Structure (SMILES): CCOC(=O)N=S(N)(=O)c1ccccc1 (stereo not given)
- IC50 (Beta-lactamase [5]): > 59.6 µM (inactive)
- IC50 (Beta-lactamase [6]): > 59.6 µM (inactive)
- IC50 (Beta-lactamase [7]): > 59.6 µM (inactive)

Structure (SMILES): COc1ccc(OCCNC(=O)C2(C)CCN2Cc2ccc(SC)cc2)cc1 (stereo not given)
- IC50 (Steroidogenic factor 1): 3.51 µM (active)
- IC50 [8]: 35.9 µM (inactive)
- IC50 [9]: 5.57 µM (active)

Structure (SMILES): CCOC(=O)[C@]12Cc3ccc(C)cc3[C@H]1N(C1CCCCC1)C(=O)c1cc(OC)ccc12
- IC50 (Fatty acid synthase [18]): 5.14 µM (active)
- IC50 (Fatty acid synthase [19]): 5.7 µM (active)
- IC50 (Beta Lactamase): 19.1 µM (inactive)
- IC50 [12]: 2.32 µM (active)

Structure (SMILES): CCC(C)[C@H](NC(=O)[C@@H]1Cc2ccccc2CN1)C(=O)NCc1ccc(C)cc1 (stereo not given in full)
- AC50 (Vero): 29.5 µM (active)
- AC50 (A549): 20.9 µM (active)

Structure (SMILES): C/C(CC(=O)Nc1cccc(Br)c1)=N\NC(=O)c1ccc(O)cc1O
- IC50 [13]: 83.3 µM (inactive)
- IC50 [14]: 1.23 µM (active)
- IC50 [15]: 0.756 µM (active)

Structure (SMILES): COc1ccc(-n2sc3ccccc3c2=O)cc1
- IC50 (Hexokinase): 5.35 µM (active)
- IC50 [20]: 34.5 µM (active)
- IC50 (Beta Lactamase): 27 µM (inactive)
- EC50 [10]: > 91.2 µM (inactive)
- EC50 [11]: > 91.2 µM (inactive)
- IC50 [21]: 9.6 µM (active)
- IC50 [12]: 5.79 µM (active)
- CC50 [22]: 79.7 µM (active)
